Reference: patent US9821026B2, “Use of RET agonist molecules for haematopoietic stem cell expansion protocols and transplantation therapy and a RET agonist kit” (Instituto de Medicina Molecular, priority 2012, dated 2017)

Key:
RET [1] = assay: Bcl2 and Bcl2l1 expression (RT-PCR) in LSK cells upon GFL treatment; assay type: cell-based, mouse; settings: overnight GFL/GFRα stimulation; FIG. 3h
Experimental: (§1) 10^6 E14.5 WT Lin^negcKit^pos cells were cultured in DMEM and starved for 2 hours. To test CREB phosphorilation upon GFL stimulation Lin^negcKit^poscells were stimulated 1 hour with 500 ng/ml of each GFL and co-receptor. LSK cells were purified by flow cytometry and stimulated overnight with GFL/GFRα combinations in order to determine Bcl2 and Bcl2l1 expression levels. For inhibition experiments cells were incubated 2 hours prior GFLs stimulation, to test CREB phosphorilation, or during overnight stimulation with GFLs, to determine Bcl2 and Bcl2l1 expression levels, with SB 202190 and PD98,059 from Sigma-Aldrich or Akt1/2, Akt Inhibitor VIII and CBP-CREB Interaction Inhibitor from Calbiochem. Lin^negcKit^pos cells were stimulated with GFL/GFRα for 120 hours and 2.5×10^5 CD45.2^posLin^negcKit^pos cells were sequentially analysed by flow cytometry and transplanted into lethally irradiated hosts with a radio-protective dose 2.5×10^5 CD45.1 BM cells. […] When analysed by flow cytometry haematopoietic progenitors were further stained with an LSK antibody cocktail.
Real-time PCR analysis: RNA was extracted from cell suspension using RNeasy Mini Kit or RNeasy Micro Kit (Qiagen). […] Variance was analyzed using F-test. […] Kaplan-Meier survival curves were analyzed using a log rank test. […]

HSCs = assay: HSC expansion in culture with RET ligands (recovered LSKs and HSCs treated with GFLs for 4 days); assay type: cell-based, mouse; settings: for HSC expansion in culture (true HSCs recovered): versus conventional medium only, FIG. 3d
lethally irradiated mice = assay: Competitive transplantation of GFL pre-treated progenitors into lethally irradiated hosts; assay type: in vivo, mouse; settings: FIG. 4e-g
Experimental: Mice: C57BL/6J (CD45.2 and CD45.1), Rag1^−/− (CD45.2 and CD45.1)^29, Vav1-iCre^11, Gfra1^−/−22, Gfra2^−/−24, Gfra3^−/−23, Ret^MEN2B20 and Ret^−/−9 were on a C57BL/6J genetic background. All mice strains were bred and maintained at IMM animal facility. Animal procedures were performed in accordance to national and institutional guidelines. Generation of Ret Conditional Knockout Mice: To generate mice harbouring a conditional Ret knock-out allele we engineered a targeting construct that firstly, included the introduction of a floxed 2.1 kb, Neomycin resistance (Neo^r) cassette under the control of the phosphoglycerate kinase-1 (PGK) promoter and a polyA tail (pA). This cassette (PGK-NEO^r-pA) was inserted approximately 4.5 kb upstream at the Xho I site of the pBluescript KS (pBS KS) vector that carried approximately 13 kb of the 5′ end of mouse Ret genomic locus flanking exon 1. […] Colony-Forming Units Assays: 5×10^3 E14.5 Lin^negcKit^pos cells MACS purified (MiltenyiBiotec) from WT, Ret^−/− or Ret^MEN2B were cultured in M3434 (Stem Cell Technologies) and scored at day 8 to 10 by flow cytometry and microscope analysis. 3×10^4 E14.5 Lin^negcKit^pos cells were MACS (MiltenyiBiotec) purified from WT, Ret^−/− or Ret^MEN2B and were injected into lethally irradiated mice (9Gy) and CFUs scored after 8 to 10 days by flow cytometry and microscope analysis. […]

E14.5 LSK cells = assay: Survival (AnnexinV) of LSK/HSC cells cultured with GFL/GFRα; assay type: cell-based, mouse; settings: versus conventional medium / medium alone, FIG. 3d-e, FIG. 10c
Experimental: 10^6 E14.5 WT Lin^negcKit^pos cells were cultured in DMEM and starved for 2 hours. To test CREB phosphorilation upon GFL stimulation Lin^negcKit^poscells were stimulated 1 hour with 500 ng/ml of each GFL and co-receptor. LSK cells were purified by flow cytometry and stimulated overnight with GFL/GFRα combinations in order to determine Bcl2 and Bcl2l1 expression levels. For inhibition experiments cells were incubated 2 hours prior GFLs stimulation, to test CREB phosphorilation, or during overnight stimulation with GFLs, to determine Bcl2 and Bcl2l1 expression levels, with SB 202190 and PD98,059 from Sigma-Aldrich or Akt1/2, Akt Inhibitor VIII and CBP-CREB Interaction Inhibitor from Calbiochem. Lin^negcKit^pos cells were stimulated with GFL/GFRα for 120 hours and 2.5×10^5 CD45.2^posLin^negcKit^pos cells were sequentially analysed by flow cytometry and transplanted into lethally irradiated hosts with a radio-protective dose 2.5×10^5 CD45.1 BM cells. To detect Annexin V, 4×10^4 E14.5 WT or Ret^−/−Lin^negckit^pos cells per well were cultured overnight in DMEM alone or with GFL/GFRα. When analysed by flow cytometry haematopoietic progenitors were further stained with an LSK antibody cocktail.

RET [2] = assay: Flow cytometry of kinase/CREB phosphorylation in LSK cells upon GFL stimulation; assay type: cell-based, mouse; settings: GFLs for 1 h, FIG. 3g
Experimental: Intracellular stainings were done using BrdU Flow Kit and anti-BrdU (3D4), 7AAD, anti-Ki-67 (B56), anti-S6 (pS235/pS236) (N7-548) and anti-Akt (pT308) (JI-223.371) from BD Pharmingen, anti-human RET (132507) from R&D Systems, anti-PIP3 (Z-P345) from Echelon Biosciences, anti-CREB (pS133) (87G3), anti-p38 (pT180/Y182) (28B10), anti-Akt (pS473) (D9E) and anti-ERK1/2 (pT202/pY204) (D13.14.4E) from Cell Signaling Technology.
as §1, with “For inhibition experiments cells were incubated 2 hours prior GFLs stimulation, to test CREB phosphorilation, or during overnight stimulation with GFLs, to determine Bcl2 and Bcl2l1 expression levels, with SB 202190 and PD98,059 from Sigma-Aldrich or Akt1/2, Akt Inhibitor VIII and CBP-CREB Interaction Inhibitor from Calbiochem.” left out

glial cell-line derived neurotrophic factor (GDNF) ligands [GFLs]
Bcl2/Bcl2l1 expression by LSKs (RET [1]): increased Bcl2/Bcl2l1 expression
differentiation of cells in expansion culture (HSCs; RET agonist treatment): do not alter the differentiation of cells
HSC expansion in culture (true HSCs recovered) (HSCs; listed as RET agonist): three times more true HSCs
HSC expansion in culture (true HSCs recovered) (HSCs; listed as RET ligands): three times higher
number of cells recovered in expansion culture (HSCs; versus current conventional medium): duplicate the number or cells recovered
increase of bona fide HSCs that maintain their stemness (HSCs; versus current state-of-the-art expansion methods): 20 fold
transplantation fitness and HSC engraftment (lethally irradiated mice; E14.5 LSKs treated with GFLs, transplanted with competitor CD45.1 BM, versus untreated): strikingly increased transplantation fitness and HSC engraftment
increase in transplantation efficiency of expanded HSCs (lethally irradiated mice; versus HSCs expanded in conventional medium): circa 300 fold
LSK and HSC survival in culture (E14.5 LSK cells): efficiently increased LSK and HSC survival
LSK and HSC survival in culture (E14.5 LSK cells; listed as RET ligands): survive almost three times better
ERK1/2, PI3K/Akt phosphorylation in LSKs (RET [2]): stable
p38/MAP kinase and CREB phosphorylation in LSKs (RET [2]; FIG. 10e): rapid p38/MAP kinase and CREB phosphorylation
